Assay results: ChEMBL document CHEMBL2028040, “Malaria Box”

Tests used:
Plasmodium falciparum [1] = assay: MMV: Inhibition of Plasmodium falciparum 3D7 at 5uM compound concentration.; assay type: functional
Leishmania infantum = assay: MMV: Inhibition of Leishmania infantum (MHOM/MA/BE/67) in vitro.; assay type: functional, organism-based
Plasmodium falciparum [2] = assay: MMV: Inhibition of Plasmodium falciparum K1 (EC50).; assay type: functional, organism-based
Plasmodium falciparum [3] = assay: MMV: Inhibition of Plasmodium falciparum 3D7 (EC50).; assay type: functional, organism-based
[4] = system: Trypanosoma brucei rhodesiense; assay: MMV: Inhibition of Trypanosoma brucei rhodesiense (STIB 900) (HAT in vitro).; assay type: functional, organism-based
[5] = MMV: Cytotoxicity against human fibroblasts (MRC-5) cells.; conditions: MRC-5 cells (human fibroblasts)
Trypanosoma cruzi = assay: MMV: Inhibition of Trypanosoma cruzi (Tulahuen C4 LacZ) (Chagas in vitro).; assay type: functional, organism-based
[6] = system: Trypanosoma brucei brucei; assay: MMV: Inhibition of Trypanosoma brucei brucei (Squib 427) (HAT in vitro).; assay type: functional, organism-based

| SMILES | inhibition at 5 µM (Plasmodium falciparum [1]) | IC50 (Leishmania infantum) | EC50 (Plasmodium falciparum [2]) | EC50 (Plasmodium falciparum [3]) | IC50 [4] | IC50 [5] | IC50 (Trypanosoma cruzi) | IC50 [6] |
| --- | --- | --- | --- | --- | --- | --- | --- | --- |
| O=C(CCc1ccccc1)c1ccccc1OCC(O)CN1CCCCC1 (centres undefined) | 97% | 17.3 µM | 0.182 µM | 0.676 µM | 4.7 µM | > 32 µM | 16.9 µM | 16.1 µM |
| FC(F)(F)c1cccc(Nc2nc3ccccc3nc2Nc2cccc(C(F)(F)F)c2)c1 | 99% | 4.06 µM | 0.501 µM | 0.313 µM | 4 µM | 9.31 µM | 3.75 µM | 3.78 µM |
| CN(C)c1ccc(C=Cc2nc(=O)c3ccccc3o2)cc1 | 96% | > 32 µM | 0.0272 µM | 0.0515 µM | 3.06 µM | > 32 µM | > 32 µM | > 32 µM |
| CC(C)(C)c1ccc(O)c(CNC2CCCCC2)c1 | 96% | 16 µM | 0.0458 µM | 0.161 µM | 4 µM | > 32 µM | 21.2 µM | 3.78 µM |
| CN(C)c1ccc(C(O)(c2ccc(N(C)C)cc2)c2ccc(N(C)C)cc2)cc1 [METHYLROSANILINE] | 96% | < 0.125 µM | 0.5 µM | 0.255 µM | < 0.125 µM | 0.354 µM | < 0.125 µM | < 0.125 µM |
| Cc1ccc(F)cc1NC(=O)c1cc(Cl)ccc1Nc1ccccc1 | 99% | > 32 µM | 0.507 µM | 0.539 µM | > 32 µM | > 32 µM | > 32 µM | > 32 µM |
| COc1ccc(CN2CCN(Cc3ccccc3)CC2)c(O)c1 | 96% | > 32 µM | 0.789 µM | 1.08 µM | > 32 µM | > 32 µM | > 32 µM | > 32 µM |
| Cc1ccccc1OCCSc1nc2ccc(NC(=O)c3cccs3)cc2s1 | 96% | 17.3 µM | 1.04 µM | 0.697 µM | 2.77 µM | > 32 µM | 4.65 µM | 3.94 µM |
| COc1ccc(CNC2CCN(c3ccc(NC(=O)c4cccc(Cl)c4)cc3)CC2)cc1OC | 97% | 6.35 µM | 1.61 µM | 0.663 µM | 3.8 µM | > 32 µM | 15.4 µM | 3.09 µM |
| CC1CCN(Cc2ccc(NC(=O)c3cc4ccc5cccnc5c4[nH]3)cc2)CC1 | 97% | 3.01 µM | 0.773 µM | 0.274 µM | 0.861 µM | 1.45 µM | 2.2 µM | 1.41 µM |
| CCOC(=O)c1cnc2c(C)cccc2c1Nc1ccc(C(C)=O)cc1 | 94% | > 32 µM | 0.712 µM | 0.314 µM | > 32 µM | > 32 µM | > 32 µM | > 32 µM |
| CC1CCN(Cc2c(O)ccc3cc(-c4nc5ccccc5s4)c(=O)oc23)CC1 | 91% | 19 µM | 0.47 µM | 1.13 µM | < 0.125 µM | 23.2 µM | 18 µM | 18.4 µM |
| CN(C)CCCNCc1ccc(-c2ccc(F)c(Cl)c2)o1 | 96% | 4.15 µM | 0.763 µM | 0.876 µM | < 0.125 µM | 17.3 µM | 3.85 µM | 0.185 µM |
| O=C(CCl)NCCOc1ccc(Cl)cc1Cl | 94% | 10.2 µM | 1 µM | 0.555 µM | 6.83 µM | 16.2 µM | 19.1 µM | 11.6 µM |
| COc1cccc(NC(=O)[C@H](C(C)C)n2c(=O)[nH]c3ccccc3c2=O)c1 | 99% | 5.66 µM | 0.203 µM | 0.139 µM | 1.05 µM | > 32 µM | 9.22 µM | 4.32 µM |
| Nc1ccc(-c2nc3cc(Cc4ccc5[nH]c(-c6ccc(N)cc6)nc5c4)ccc3[nH]2)cc1 | 100% | > 32 µM | 1.29 µM | 1.42 µM | 2.27 µM | 11.4 µM | 4.54 µM | 1.89 µM |
| Oc1ccccc1CNCC12CC3CC(CC(C3)C1)C2 | 96% | 17.3 µM | 0.0068 µM | 0.0226 µM | 16 µM | > 32 µM | > 32 µM | 15.7 µM |
| Cc1ccc(C)c(Cn2c(N3CCC(C(=O)NCc4cccs4)CC3)nc3ccccc32)c1 | 97% | 17.3 µM | 1.67 µM | 1.33 µM | 3.86 µM | > 32 µM | 8.64 µM | 6.9 µM |
